Reference: ChEMBL document CHEMBL5465560, “Selectivity Literature for EUbOPEN Chemogenomic Library” (2024)

Experiments:
[1] = target: T1, Dual serine/threonine and tyrosine protein kinase (Homo sapiens) (UniProt Q6XUX3); assay: Selectivity interaction (KinomeScan (DiscoverX)) EUB0000045b DSTYK
T1 sequence (whole entry): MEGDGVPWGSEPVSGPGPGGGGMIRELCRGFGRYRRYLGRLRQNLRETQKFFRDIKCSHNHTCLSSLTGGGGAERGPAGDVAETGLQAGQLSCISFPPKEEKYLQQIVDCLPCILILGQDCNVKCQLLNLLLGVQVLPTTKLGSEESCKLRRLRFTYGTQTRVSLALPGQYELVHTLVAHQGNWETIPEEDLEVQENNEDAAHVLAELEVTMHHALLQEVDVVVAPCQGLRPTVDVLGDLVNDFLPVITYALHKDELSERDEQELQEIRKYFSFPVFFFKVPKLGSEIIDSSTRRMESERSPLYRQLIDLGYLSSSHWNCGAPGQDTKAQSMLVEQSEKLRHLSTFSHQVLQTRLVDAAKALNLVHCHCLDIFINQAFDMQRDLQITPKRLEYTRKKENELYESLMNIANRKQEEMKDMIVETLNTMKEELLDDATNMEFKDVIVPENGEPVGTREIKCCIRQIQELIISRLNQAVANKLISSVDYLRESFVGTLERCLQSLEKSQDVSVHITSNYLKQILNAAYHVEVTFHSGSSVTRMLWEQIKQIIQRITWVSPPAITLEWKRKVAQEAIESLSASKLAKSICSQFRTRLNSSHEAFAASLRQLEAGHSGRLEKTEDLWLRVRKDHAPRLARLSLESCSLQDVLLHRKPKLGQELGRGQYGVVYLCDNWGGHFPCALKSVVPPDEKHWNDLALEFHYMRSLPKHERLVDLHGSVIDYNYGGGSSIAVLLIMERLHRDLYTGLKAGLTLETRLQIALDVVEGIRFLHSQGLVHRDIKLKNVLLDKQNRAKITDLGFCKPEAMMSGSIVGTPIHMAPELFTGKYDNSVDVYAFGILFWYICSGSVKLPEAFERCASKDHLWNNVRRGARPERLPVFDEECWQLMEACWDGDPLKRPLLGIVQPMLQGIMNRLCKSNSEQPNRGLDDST

[2] = target: T2, Mitogen-activated protein kinase kinase kinase 15 (Homo sapiens) (UniProt Q6ZN16); assay: Selectivity interaction (KinomeScan (DiscoverX)) EUB0000695a MAP3K15; conditions: at 100 nM
T2 sequence (whole entry): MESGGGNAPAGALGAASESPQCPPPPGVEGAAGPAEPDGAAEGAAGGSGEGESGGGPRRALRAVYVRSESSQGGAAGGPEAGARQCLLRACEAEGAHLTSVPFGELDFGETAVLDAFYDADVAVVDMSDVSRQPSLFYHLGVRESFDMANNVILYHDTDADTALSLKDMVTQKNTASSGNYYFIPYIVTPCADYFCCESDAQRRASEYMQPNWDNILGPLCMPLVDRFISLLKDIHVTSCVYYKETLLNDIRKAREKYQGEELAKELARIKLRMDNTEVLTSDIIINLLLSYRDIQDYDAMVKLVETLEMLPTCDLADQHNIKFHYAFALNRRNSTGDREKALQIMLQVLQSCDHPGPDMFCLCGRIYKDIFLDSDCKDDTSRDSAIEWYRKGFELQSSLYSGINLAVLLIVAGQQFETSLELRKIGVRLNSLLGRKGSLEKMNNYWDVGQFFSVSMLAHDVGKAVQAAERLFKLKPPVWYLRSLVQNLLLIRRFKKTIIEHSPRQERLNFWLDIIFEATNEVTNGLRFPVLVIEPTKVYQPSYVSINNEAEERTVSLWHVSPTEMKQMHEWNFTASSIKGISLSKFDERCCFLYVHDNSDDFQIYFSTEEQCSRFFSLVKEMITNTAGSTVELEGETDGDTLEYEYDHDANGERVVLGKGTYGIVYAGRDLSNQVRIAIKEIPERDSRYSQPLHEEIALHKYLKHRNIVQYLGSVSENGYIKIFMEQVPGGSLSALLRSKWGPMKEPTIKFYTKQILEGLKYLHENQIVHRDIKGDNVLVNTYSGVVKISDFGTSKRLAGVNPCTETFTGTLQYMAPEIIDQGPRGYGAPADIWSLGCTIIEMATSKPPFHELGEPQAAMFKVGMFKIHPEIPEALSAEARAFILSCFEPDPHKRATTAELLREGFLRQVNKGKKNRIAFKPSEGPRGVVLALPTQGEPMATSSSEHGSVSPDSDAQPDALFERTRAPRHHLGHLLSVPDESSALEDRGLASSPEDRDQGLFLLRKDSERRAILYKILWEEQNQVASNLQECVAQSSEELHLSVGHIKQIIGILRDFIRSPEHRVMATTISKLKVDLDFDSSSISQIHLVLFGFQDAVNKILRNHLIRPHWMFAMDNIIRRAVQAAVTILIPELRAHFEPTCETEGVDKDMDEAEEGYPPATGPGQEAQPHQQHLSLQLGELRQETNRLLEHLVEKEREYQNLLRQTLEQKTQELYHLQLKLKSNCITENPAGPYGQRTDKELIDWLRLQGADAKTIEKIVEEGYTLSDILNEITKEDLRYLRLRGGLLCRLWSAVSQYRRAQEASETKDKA

[3] = target: Phosphatidylinositol 4-kinase beta (Homo sapiens, UniProt Q9UBF8); assay: Selectivity interaction (ActivX KiNativ screen (ex vivo kinase selectivity in human PBMCs)) EUB0001619a PI4KB; format: cell-based; conditions: PBMC, at 1 µM
[4] = target: CDK4/Cyclin D3 (Homo sapiens) (UniProt P11802+P30281); assay: (§1) Selectivity interaction (KinomeScan (DiscoverX)) EUB0000655a CDK4; format: protein-complex assay; conditions: at 10 µM
[5] = target: Cyclin-dependent kinase 4/cyclin D1 (Homo sapiens) (UniProt P11802+P24385); assay: as §1; format: protein-complex assay; conditions: at 10 µM

Chain of Phosphatidylinositol 4-kinase beta (Q9UBF8 2-816 limits assumed): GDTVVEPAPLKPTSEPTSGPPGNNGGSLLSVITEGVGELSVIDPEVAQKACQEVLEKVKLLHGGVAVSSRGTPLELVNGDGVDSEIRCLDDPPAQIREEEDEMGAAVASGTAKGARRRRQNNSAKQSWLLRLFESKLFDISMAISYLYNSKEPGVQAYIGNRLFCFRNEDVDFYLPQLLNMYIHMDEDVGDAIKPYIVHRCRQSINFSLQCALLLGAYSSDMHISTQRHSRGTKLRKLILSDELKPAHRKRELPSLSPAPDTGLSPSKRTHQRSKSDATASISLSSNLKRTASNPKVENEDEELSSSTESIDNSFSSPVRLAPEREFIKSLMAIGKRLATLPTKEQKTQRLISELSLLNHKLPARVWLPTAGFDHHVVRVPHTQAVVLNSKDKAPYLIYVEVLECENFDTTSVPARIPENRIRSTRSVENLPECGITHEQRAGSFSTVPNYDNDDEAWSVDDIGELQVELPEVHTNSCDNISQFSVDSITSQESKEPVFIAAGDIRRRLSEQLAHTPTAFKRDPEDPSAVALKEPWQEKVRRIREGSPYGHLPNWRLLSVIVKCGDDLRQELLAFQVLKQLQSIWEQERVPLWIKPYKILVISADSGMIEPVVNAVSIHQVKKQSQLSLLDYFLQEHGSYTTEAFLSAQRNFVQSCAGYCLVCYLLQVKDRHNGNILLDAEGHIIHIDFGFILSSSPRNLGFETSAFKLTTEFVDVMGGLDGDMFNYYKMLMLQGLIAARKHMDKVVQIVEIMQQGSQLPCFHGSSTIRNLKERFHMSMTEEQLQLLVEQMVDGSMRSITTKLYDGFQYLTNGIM

## C=CC(=O)Nc1cc(-n2c(=O)ccc3cnc4ccc(-c5ccc(NS(C)(=O)=O)cc5)cc4c32)ccc1C
[1]; at 1 µM
  % of control: 100%
[1]; at 10 µM
  % of control: 100%

## Cc1cc(F)c(C(=O)Nc2cccc(-c3nncn3C(C)C)n2)cc1-n1cnc(C2CC2)c1
[2]
  % of control: 66%

## N#Cc1cccc(-c2c[nH]c3ncnc(N4CCOCC4)c23)c1
[3]
  % of inhibition: -27%

## CN(C)CCOc1ccc(-c2nc(-c3ccncc3)c(-c3ccc4c(c3)CC/C4=N\O)[nH]2)cc1
[4]
  % of control: 86%
[5]
  % of control: 58%
